Reference: patent US20250313563A1, “GLYCOGEN SYNTHASE KINASE 3 INHIBITORS AND USES THEREOF” (The Broad Institute, Inc., priority 2022, published 2025)
Read-outs that look alike come from different tables or passages of the source.

Legend:
[1] = molecular target: GSK3b (GST-full length GSK3b) (Homo sapiens (Human), UniProt P49841); assay: GSK3b TR-FRET kinase assay; assay type: biochemical
In short: (§1)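 Readout: anti-pSer641 Tb antibody/streptavidin-d2 signal after 60 min, expressed as 665/615 ratio and fitted versus log concentration for IC50. Enzyme: 1 nM GST-GSK3 (α or β), compound-preincubated 30 min. Conditions: pH 7.5 Tris buffer with MgCl2, DTT, BSA; ATP at 4 or 2 μM, or 1 mM; 100 min.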

[2] = molecular target: GSK3α (GST-full length GSK3α) (Homo sapiens (Human), UniProt P49840); assay: GSK3α TR-FRET kinase assay; assay type: biochemical
GSK3α (GST-full length GSK3α), sequence (P49840 whole entry): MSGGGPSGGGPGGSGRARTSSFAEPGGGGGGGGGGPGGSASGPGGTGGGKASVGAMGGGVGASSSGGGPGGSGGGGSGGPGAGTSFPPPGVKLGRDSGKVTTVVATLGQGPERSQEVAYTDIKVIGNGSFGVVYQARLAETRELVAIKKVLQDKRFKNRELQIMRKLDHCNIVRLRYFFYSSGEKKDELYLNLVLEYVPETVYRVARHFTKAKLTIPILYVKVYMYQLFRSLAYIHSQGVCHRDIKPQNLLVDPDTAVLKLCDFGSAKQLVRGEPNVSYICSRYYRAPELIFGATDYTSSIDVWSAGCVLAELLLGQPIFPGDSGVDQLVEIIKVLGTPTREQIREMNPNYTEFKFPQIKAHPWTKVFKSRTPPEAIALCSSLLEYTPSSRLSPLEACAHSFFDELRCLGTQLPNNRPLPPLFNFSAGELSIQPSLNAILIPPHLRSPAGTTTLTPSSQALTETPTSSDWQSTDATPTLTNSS
In short: as §1

[3] = 1 nM GSK3b, 2 μM ATP, 30 minute preincubation, Table 16, read-out: GSK3-B TR-FRET BIOCHEMICAL (TR-FRET)
[4] = read-out: GSK3-B (TR-FRET 1 mM ATP), GMean, IC50, 1 mM ATP, geometric mean
[5] = 1 nM GSK3α, 4 μM ATP, 30 minute preincubation, Table 16, read-out: GSK3-A TR-FRET BIOCHEMICAL (TR-FRET)
[6] = read-out: GSK3-A (TR-FRET 1 mM ATP), GMean, IC50, 1 mM ATP, geometric mean
[7] = 1 nM GSK3b, 2 μM ATP, 30 minute preincubation, geometric mean, read-out: GSK3-B TR-FRET BIOCHEMICAL (TR-FRET), GMean, IC50
[8] = 1 nM GSK3α, 4 μM ATP, 30 minute preincubation, geometric mean, read-out: GSK3-A TR-FRET BIOCHEMICAL (TR-FRET), GMean, IC50

GSK3b (GST-full length GSK3b), sequence (P49841 whole entry): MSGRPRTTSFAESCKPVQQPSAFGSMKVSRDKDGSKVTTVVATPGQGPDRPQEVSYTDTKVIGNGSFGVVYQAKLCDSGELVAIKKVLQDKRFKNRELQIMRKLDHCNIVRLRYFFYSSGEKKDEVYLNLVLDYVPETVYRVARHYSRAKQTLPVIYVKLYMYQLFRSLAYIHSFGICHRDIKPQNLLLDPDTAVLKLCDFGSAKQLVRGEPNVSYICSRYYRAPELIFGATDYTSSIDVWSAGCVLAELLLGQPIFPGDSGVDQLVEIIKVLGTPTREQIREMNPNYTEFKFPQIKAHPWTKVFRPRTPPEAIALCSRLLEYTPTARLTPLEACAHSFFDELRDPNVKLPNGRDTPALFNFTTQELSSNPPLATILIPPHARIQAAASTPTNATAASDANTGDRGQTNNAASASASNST

| Structure (SMILES) | IC50 [1, 3] [nM] | IC50 [1, 4] [nM] | IC50 [2, 5] [nM] | IC50 [2, 6] [nM] | IC50 ([1]; 1 nM GSK3b, 2 μM ATP, 30 minute preincubation, read-out: GSK3-B TR-FRET BIOCHEMICAL (TR-FRET), IC50) [nM] | IC50 ([2]; 1 nM GSK3α, 4 μM ATP, 30 minute preincubation, read-out: GSK3-A TR-FRET BIOCHEMICAL (TR-FRET), IC50) [nM] | IC50 [1, 7] [nM] | IC50 [2, 8] [nM] |
| --- | --- | --- | --- | --- | --- | --- | --- | --- |
| CCC1(c2cccc(-c3cc(C)ncc3C)c2)C2=C(CC(C)(C)CC2=O)Nc2n[nH]c(C(F)(F)F)c21 (stereo not shown) [Compound 947363] | ≤ 100 | 100 to 1000 | ≤ 100 | ≤ 100 |  |  |  |  |
| CCC1(c2cccc(-c3ccnn3C)c2)C2=C(CC(C)(C)CC2=O)Nc2n[nH]c(C(F)(F)F)c21 (stereo not shown) [Compound 947365] | 1000 to 5000 |  | 100 to 1000 |  |  |  |  |  |
| CC[C@@]1(c2cccc(-c3ccnn3C)c2)C2=C(CC(C)(C)CC2=O)Nc2n[nH]c(C(F)(F)F)c21 [Compound 947372] | ≤ 100 | ≤ 100 | ≤ 100 | ≤ 100 |  |  |  |  |
| CC[C@]1(c2cccc(-c3cc(C)nn3C)c2)C2=C(CC(C)(C)CC2=O)Nc2n[nH]c(C(F)(F)F)c21 [Compound 947383] | > 5000 |  | 1000 to 5000 |  |  |  |  |  |
| CCC1(c2cccc(S(C)(=O)=O)c2)C2=C(CC(C)(C)NC2=O)Nc2n[nH]c(C)c21 (stereo not shown) [Compound 947395] |  | 100 to 1000 |  | 100 to 1000 | ≤ 100 | ≤ 100 |  |  |
| CCC1(c2cccc(-c3cnnn3C(C)C)c2)C2=C(CC(C)(C)CC2=O)Nc2n[nH]cc21 (stereo not shown) [Compound 947397] | ≤ 100 |  | ≤ 100 |  |  |  |  |  |
| CCC1(c2cccc(-c3cnn(C)c3C)c2)C2=C(CC(C)(C)NC2=O)Nc2n[nH]c(C(F)(F)F)c21 (stereo not shown) [Compound 947403] |  | 100 to 1000 |  | ≤ 100 |  |  | ≤ 100 | ≤ 100 |
| CCC1(c2cccc(-c3ccncc3C)c2)C2=C(CC(C)(C)NC2=O)Nc2n[nH]c(C(F)(F)F)c21 (stereo not shown) [Compound 947404] |  | 100 to 1000 |  | ≤ 100 |  |  | ≤ 100 | ≤ 100 |
| CCC1(c2cccc(-c3cnn(C)c3)c2)C2=C(CC(C)(C)NC2=O)Nc2n[nH]c(C(F)(F)F)c21 (stereo not shown) [Compound 947405] |  | 100 to 1000 |  | ≤ 100 |  |  | ≤ 100 | ≤ 100 |
| CC[C@]1(c2cccc(-c3ccncc3C)c2)C2=C(CC(C)(C)NC2=O)Nc2n[nH]c(C)c21 [Compound 947409] |  |  |  |  |  |  | > 5000 | 1000 to 5000 |

The remaining lines, values ahead:

| IC50 [1, 3] [nM] | IC50 [1, 4] [nM] | IC50 [2, 5] [nM] | IC50 [2, 6] [nM] | IC50 ([1]; 1 nM GSK3b, 2 μM ATP, 30 minute preincubation, read-out: GSK3-B TR-FRET BIOCHEMICAL (TR-FRET), IC50) [nM] | IC50 ([2]; 1 nM GSK3α, 4 μM ATP, 30 minute preincubation, read-out: GSK3-A TR-FRET BIOCHEMICAL (TR-FRET), IC50) [nM] | IC50 [1, 7] [nM] | IC50 [2, 8] [nM] | Structure (SMILES) |
| --- | --- | --- | --- | --- | --- | --- | --- | --- |
| ≤ 100 | 100 to 1000 | ≤ 100 | ≤ 100 |  |  |  |  | CCN(c1cccc(C2(CC)C3=C(CC(C)(C)CC3=O)Nc3n[nH]cc32)c1)c1ncccn1 (stereo not shown) [Compound 947333] |
| 1000 to 5000 |  | 100 to 1000 |  |  |  |  |  | CCN(c1cccc([C@@]2(CC)C3=C(CC(C)(C)CC3=O)Nc3n[nH]cc32)c1)c1ncccn1 [Compound 947334] |
| ≤ 100 |  | ≤ 100 |  |  |  |  |  | CCC1(c2cccc(-c3cnnn3C)c2)C2=C(CC(C)(C)CC2=O)Nc2n[nH]cc21 (stereo not shown) [Compound 947398] |
|  |  |  |  |  |  | 1000 to 5000 | 100 to 1000 | CCC1(c2cccc(-c3ccnc(C)c3C)c2)C2=C(CC(C)(C)NC2=O)Nc2n[nH]c(C)c21 (stereo not shown) [Compound 947399] |
| ≤ 100 |  | ≤ 100 |  |  |  |  |  | CCC1(c2cccc(Oc3ncccn3)c2)C2=C(CC(C)(C)CC2=O)Nc2n[nH]cc21 (stereo not shown) [Compound 947400] |
|  |  |  |  |  |  | 100 to 1000 | ≤ 100 | CCC1(c2cccc(-c3ccnc(C)c3F)c2)C2=C(CC(C)(C)NC2=O)Nc2n[nH]c(C)c21 (stereo not shown) [Compound 947402] |
| 100 to 1000 | > 5000 | ≤ 100 | 100 to 1000 |  |  |  |  | CC[C@]1(c2cccc(-c3ccnc(C)c3)c2)C2=C(C[C@]3(CCOC3)NC2=O)Nc2n[nH]cc21 [Compound 947406] |
| 1000 to 5000 |  | ≤ 100 |  |  |  |  |  | CCC1(c2cccc(-c3ccnc(C)c3)c2)C2=C(CC3(CCOC3)CC2=O)Nc2n[nH]cc21 (stereo not shown) [Compound 947407] |
|  | 1000 to 5000 |  | 100 to 1000 |  |  | ≤ 100 | ≤ 100 | CC[C@]1(c2cccc(-c3c(C)nn(C)c3C)c2)C2=C(CC(C)(C)NC2=O)Nc2n[nH]cc21 [Compound 947408] |
|  | > 5000 |  | 100 to 1000 |  |  | 100 to 1000 | ≤ 100 | CC[C@]1(c2cccc(-c3cnn4c3CCCC4)c2)C2=C(CC(C)(C)NC2=O)Nc2n[nH]cc21 [Compound 947410] |
| > 5000 |  | 1000 to 5000 |  |  |  |  |  | CCC1(c2cccc(-c3ccnc(C)c3)c2)C2=C(CC3(CCOC3)CC2=O)Nc2n[nH]cc21 (stereo not shown) [Compound 947412] |
|  |  |  |  |  |  | > 5000 | 1000 to 5000 | CC[C@@]1(c2cccc(-c3c(C)nn(C)c3C)c2)C2=C(CC(C)(C)NC2=O)Nc2n[nH]cc21 [Compound 947413] |
|  | 1000 to 5000 |  | 100 to 1000 |  |  | ≤ 100 | ≤ 100 | CC[C@@]1(c2cccc(-c3ccncc3C)c2)C2=C(CC(C)(C)NC2=O)Nc2n[nH]c(C)c21 [Compound 947414] |
|  |  |  |  |  |  | > 5000 | 1000 to 5000 | CCC1(c2cccc(-c3cnn4c3CCCC4)c2)C2=C(CC(C)(C)NC2=O)Nc2n[nH]cc21 (stereo not shown) [Compound 947415] |
